Data: US20130302909A1, “ASSESSMENT OF IGF-1 LEVELS IN HIV-INFECTED SUBJECTS AND USES THEREOF” (THERATECHNOLOGIES INC., priority 2011, published 2013)
*: point of attachment. Hexenoyl(3E) = CC/C=C/CC(=O)*

How the values were obtained:
[1] = system: serum IGF-1; experiment: Serum IGF-1 SDS in HIV patients treated with ThGRF, combined phase 3 studies, extension phase (LIPO-010 Extension/CTR-1012); assay type: in vivo, human; settings: for SDS >2 (%) / SDS >3 (%): HIV+ male normative ranges, percent of patients
From the text: (§1) The IGF-1 normative ranges were derived from two phase 3 clinical studies of treatment with the GRF analog (hexenoyl trans-3)hGRF(1-44)NH2 (also referred to herein as “ThGRF” or “TH9507”). One phase 3 clinical study includes a main phase (6 months) and an extension phase (6 months) in one study (Lipo-010) and the second phase 3 clinical study includes two studies. CTR-1011 was the main phase (first 6 months) and CTR-1012 was the extension phase (last 6 months).
(§2) The IGF-1 data at baseline of all male patients from studies Lipo-010 and CTR-1011 were combined. Loge transformation was applied. […] The level of IGF-1 in the serum samples was determined using a blocking RIA assay. The IGF-1 blocking RIA assay is a competitive binding radioimmunoassay. It utilizes rabbit polyclonal antisera specific for IGF-1 as the primary antibody and radioiodinated recombinant human IGF-1 as tracer. Serum IGF-1 is first separated from binding proteins by acid ethanol extraction. The extracts (controls and unknown/test samples) and standard are incubated with primary antibody and tracer. Free IGF-1 present in the extracts competes with and displaces the tracer from primary antibody. A second antibody specific for rabbit immunoglobulin is added to precipitate the immunocomplexes, which are then separated from free reactants by centrifugation. The amount of radioactivity present in the precipitated immunocomplex is measured with a gamma counter and is inversely related to the concentration of IGF-1 present in the sample. The amount of tracer bound to the immunocomplexes formed in the calibrator samples (purified recombinant human IGF-1) is used to establish a dose response standard curve from which the IGF-1 concentration of controls and unknown samples are back calculated.
(§3) During clinical studies of the treatment of HIV subjects with ThGRF, initial analyses of IGF-I values of the HIV subjects was performed using a typical IGF-I determination, in which age- and gender-specific means and SD values were utilized for the calculation of the standard deviation scores (SDS). These values were derived from a relatively small cohort of healthy adults and were established assuming a Normal distribution (without any transformation of the measured IGF-1 values). As such, determination of the normative IGF-1 range was initially performed based on age- and gender-matched healthy (i.e., non-HIV) subjects, without any transformation of the measured raw IGF-1 values, referred to herein below as the “typical method” or “typical approach”.
(§4) The IGF-1 SDS were recalculated based on the means and standard deviations calculated from HIV patients (from all male patients in the above-noted clinical studies at baseline per age group as presented in Table III above, assuming a Normal distribution). The results are presented in Table IV for the main phase and the extension phase.
(§5) The calculations above (based on “healthy”, typical normative ranges or using normative ranges based on IGF-1 levels in HIV subjects) were all done assuming a Normal distribution of the IGF-1 levels. However, it was noted that the distribution of the IGF-1 levels at baseline for the patients in the phase 3 clinical studies is “Lognormal” rather than “Normal”. Thus, the means and standard deviations were recalculated using the natural log(loge or In) of IGF-1 and then calculated IGF-1 SDS using the lognormal scale, i.e. [(natural log IGF-1) minus (mean) divided by (standard deviation)]. The results using lognormal distributions are presented in Table V for the main phase and the extension phase. Importantly, the percent of patients at baseline and those treated with placebo is now much closer to expected and in addition, the % of ThGRF-treated patients being larger than +2 and +3 SDS using the lognormal distribution and the HIV population normative ranges are substantially lower than that seen using the uncorrected SDS calculators.

[2] = system: serum IGF-1; experiment: Serum IGF-1 level and IGF-1 SDS in HIV patients treated with ThGRF, combined phase 3 studies, main phase (LIPO-010 Main/CTR-1011); assay type: in vivo, human; settings: Week 26; for SDS >2 (%) / SDS >3 (%): HIV+ male normative ranges
From the text: as §1, §2, §3, §4, §5

[3] = Week 27, T-P group, Log-Normal distribution
[4] = Week 27, T-P group, Normal distribution
[5] = Week 27, T-T group, Log-Normal distribution
[6] = Week 27, T-T group, Normal distribution
[7] = Week 52, T-P group, Log-Normal distribution
[8] = Week 52, T-P group, Normal distribution
[9] = Week 52, T-T group, Log-Normal distribution
[10] = Week 52, T-T group, Normal distribution
[11] = Week 52, typical approach and healthy normative ranges
[12] = 2 mg/day, Log-Normal distribution, percent of patients
[13] = 2 mg/day, Normal distribution, percent of patients
[14] = 2 mg/day, typical approach, percent of patients

(hexenoyl trans-3)hGRF(1-44)NH2 ({Hexenoyl(3E)}-YADAIFTNSYRKVLGQLSARKLLQDIMSRQQGESNQERGARARL-NH2) [ThGRF]
SDS >2 (%) [1, 3]: 28.8% | SDS >3 (%) [1, 3]: 5.3% | SDS >2 (%) [1, 4]: 40.2% | SDS >3 (%) [1, 4]: 21.2% | SDS >2 (%) [1, 5]: 32.6% | SDS >3 (%) [1, 5]: 7.6% | SDS >2 (%) [1, 6]: 44.5% | SDS >3 (%) [1, 6]: 29.2% | SDS >2 (%) [1, 7]: 0.0% | SDS >3 (%) [1, 7]: 0.0% | SDS >2 (%) [1, 8]: 1.1% | SDS >3 (%) [1, 8]: 0.0% | SDS >2 (%) [1, 9]: 19.5% | SDS >3 (%) [1, 9]: 5.8% | SDS >2 (%) [1, 10]: 27.9% | SDS >3 (%) [1, 10]: 16.3% | ThGRF-treated patients larger than +2 SDS [1, 11]: 33.7% | ThGRF-treated patients larger than +3 SDS [1, 11]: 22.6% | SDS >2 (%) [2, 12]: 30.1% | SDS >3 (%) [2, 12]: 7.4% | SDS >2 (%) [2, 13]: 41.2% | SDS >3 (%) [2, 13]: 25.4% | IGF-1 SDS Mean (SD) ([2]; 2 mg/day, typical approach (healthy normative ranges, Normal distribution)): 2.4 (2.85) | SDS >+2 (%) [2, 14]: 47.4% | SDS >+3 (%) [2, 14]: 35.6% | IGF-1 level Mean (SD) ([2]; ThGRF 2 mg/day): 262 (123.6) ng/ml
